Measured values: the supplement of paper PMC10307832

Assays:
Assay in all cases: relative viability (nuclei count vs DMSO), 5 days (fraction); higher = more cells survive
Vemurafenib + Lapatinib = compound: CCCS(=O)(=O)Nc1ccc(F)c(C(=O)c2c[nH]c3ncc(-c4ccc(Cl)cc4)cc23)c1F [Vemurafenib] + CS(=O)(=O)CCNCc1ccc(-c2ccc3ncnc(Nc4ccc(OCc5cccc(F)c5)c(Cl)c4)c3c2)o1 [Lapatinib] (partner 2 µM)
Procedure, shortened: (§1)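 Dosing by pin tool came one day after lung cancer cell lines were seeded in 1536-well plates, using either one drug or a fixed anchor-drug dose plus five library-drug doses (not always all listed) in √10 steps. After 5 days, nuclei were counted on 4× images. Relative viability is treated-well nuclei count divided by vehicle-well nuclei count, and values are medians of duplicate plates.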

Alpelisib + Lapatinib = compound: Cc1nc(NC(=O)N2CCC[C@H]2C(N)=O)sc1-c1ccnc(C(C)(C)C(F)(F)F)c1 [Alpelisib] + CS(=O)(=O)CCNCc1ccc(-c2ccc3ncnc(Nc4ccc(OCc5cccc(F)c5)c(Cl)c4)c3c2)o1 [Lapatinib] (partner 2 µM)
Procedure, shortened: as §1

OSI-027 + Pictilisib = compound: COc1cccc2cc(-c3nc([C@H]4CC[C@H](C(=O)O)CC4)n4ncnc(N)c34)[nH]c12 [OSI-027] + CS(=O)(=O)N1CCN(Cc2cc3nc(-c4cccc5[nH]ncc45)nc(N4CCOCC4)c3s2)CC1 [Pictilisib] (partner 1 µM)
Procedure, shortened: as §1

Alpelisib + Foretinib = compound: Cc1nc(NC(=O)N2CCC[C@H]2C(N)=O)sc1-c1ccnc(C(C)(C)C(F)(F)F)c1 [Alpelisib] + COc1cc2c(Oc3ccc(NC(=O)C4(C(=O)Nc5ccc(F)cc5)CC4)cc3F)ccnc2cc1OCCCN1CCOCC1 [Foretinib] (partner 0.25 µM)
Procedure, shortened: as §1

Cell Line | relative viability (Vemurafenib + Lapatinib; first compound 0.03162 µM) | relative viability (Vemurafenib + Lapatinib; first compound 0.1 µM) | relative viability (Vemurafenib + Lapatinib; first compound 0.3162 µM) | relative viability (Vemurafenib + Lapatinib; first compound 1 µM) | relative viability (Alpelisib + Lapatinib; first compound 0.04 µM) | relative viability (Alpelisib + Lapatinib; first compound 0.1265 µM) | relative viability (Alpelisib + Lapatinib; first compound 0.4 µM) | relative viability (Alpelisib + Lapatinib; first compound 1.265 µM) | relative viability (Alpelisib + Lapatinib; first compound 4 µM) | relative viability (OSI-027 + Pictilisib; first compound 0.01 µM) | relative viability (OSI-027 + Pictilisib; first compound 0.03162 µM) | relative viability (OSI-027 + Pictilisib; first compound 0.1 µM) | relative viability (OSI-027 + Pictilisib; first compound 0.3162 µM) | relative viability (OSI-027 + Pictilisib; first compound 1 µM) | relative viability (Alpelisib + Foretinib; first compound 0.04 µM) | relative viability (Alpelisib + Foretinib; first compound 0.1265 µM) | relative viability (Alpelisib + Foretinib; first compound 0.4 µM) | relative viability (Alpelisib + Foretinib; first compound 1.265 µM) | relative viability (Alpelisib + Foretinib; first compound 4 µM)
NCI-H2009 | 0.897 | 0.876 | 0.559 | 0.759 | 0.99 | 1 | 1.11 | 0.89 | 0.889 | 0.885 | 0.729 | 0.7 | 0.46 | 0.405 | 1.23 | 1.2 | 1.25 | 1.1 | 1.1
HCC-78 | 0.725 | 0.832 | 0.982 | 0.386 | 0.619 | 0.39 | 1.07 | 0.659 | 0.413 | 0.202 | 0.225 | 0.184 | 0.19 | 0.207 | 0.495 | 0.426 | 0.493 | 0.353 | 0.366
NCI-H322M | 0.583 | – | 0.801 | 0.491 | 0.535 | 0.666 | 0.518 | 0.361 | 0.423 | 0.574 | 0.443 | 0.485 | 0.416 | 0.405 | 0.909 | 0.867 | 0.927 | 0.619 | 0.678
